Target: T1, recombinant human Cyp19 enzyme (Homo sapiens, UniProt P11511)
T1 construct: purchased Becton Dickinson Biosciences, San Jose, Calif., USA
T1 sequence (P11511 1-503): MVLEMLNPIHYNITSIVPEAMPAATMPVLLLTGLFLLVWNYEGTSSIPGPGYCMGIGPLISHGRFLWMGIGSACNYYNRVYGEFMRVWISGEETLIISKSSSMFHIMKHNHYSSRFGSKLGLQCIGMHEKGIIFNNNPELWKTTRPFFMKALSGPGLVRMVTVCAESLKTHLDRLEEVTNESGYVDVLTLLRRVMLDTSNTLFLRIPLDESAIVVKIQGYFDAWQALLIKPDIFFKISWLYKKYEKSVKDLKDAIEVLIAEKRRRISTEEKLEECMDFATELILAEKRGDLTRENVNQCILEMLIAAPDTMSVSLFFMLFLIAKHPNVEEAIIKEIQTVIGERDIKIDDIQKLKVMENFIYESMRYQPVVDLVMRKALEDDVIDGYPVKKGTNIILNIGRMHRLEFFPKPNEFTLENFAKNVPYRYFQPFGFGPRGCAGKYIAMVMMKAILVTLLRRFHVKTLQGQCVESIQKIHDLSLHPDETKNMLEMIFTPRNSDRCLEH
Test: Cyp19/methoxy-4-trifluoromethyl-coumarin (MFC) high throughput inhibition kit
Format: biochemical
Conditions: Cyp19 supersomes, MFC substrate
Method: A compound of formula (I) is to be understood as a compound having a specific configuration around the designated asymmetric carbon atom labelled “*”. If a synthesis method is used which leads to racemic compounds, the racemate resolution is carried out in accordance with conventional methods, such as via a chiral HPLC column. […] The aforementioned activity can, readily and as described below, be determined by using a commercial Cyp19 enzyme inhibition kit, preferably the Cyp19/methoxy-4-trifluoromethyl-coumarin (MFC) high throughput inhibition kit (Becton Dickinson Biosciences, San Jose, Calif., USA) as described hereafter. In the above-mentioned inhibition kit, compounds of the formula (I) show an inhibiting activity which is at least 10 times higher, but preferably 20 times higher, or more preferably 40 times higher, than the substances of the formula (I) with the opposite configuration around the asymmetric carbon atom labelled “*”. A higher inhibiting activity corresponds to a lower IC50 value.
These effects are demonstrable in in vitro assay tests using cell-free and cellular systems. […] The Cyp19/Methoxy-4-trifluoromethyl-coumarin (MFC) high throughput inhibition kit (Becton Dickinson Biosciences, San Jose, Calif., USA), for example, is designed to screen for potential inhibitors of Cyp19 catalytic activity in a 96-well format. […]

In the case of N#Cc1ccc(C2OCCn3cncc32)cc1 (stereo not shown) [antipode of 1], the IC50 is reported as 2.77 µM.
